What all share (experiment): Growth inhibitory activity of compounds on BaF3 cell lines stably transfected with kinase (MTS, 48 h)
Assay type in all cases: cell-based

For experiment [1], the target named is T1, various mutants of kinase EGFR (BaF3 cell lines stably transfected with kinase) (Homo sapiens, UniProt P00533).
T1 construct: other: BaF3 cells stably transfected with EGFR Δ19Del; MTS, 48 h; other: BaF3 cell line stably transfected with EGFR Δ19Del
Conditions: BaF3 cell line stably transfected with EGFR Δ19Del, read-out: Δ19Del growth inhibitory activity IC50. An outline of the steps:
(§1)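 OD at 490 nm after 1-4 h MTS/PES incubation gave growth inhibition relative to 0.1% DMSO negative and cell-free medium blank. Compounds: 8-point 1/3 dilution from 10 µM, 48 h, 37 °C. IC50 from inhibition curves; duplicates.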

Experiment [2] concerns the target T2, various mutants of kinase EGFR (BaF3 cell lines stably transfected with kinase) (Homo sapiens, UniProt P00533, C797S/L858R/T790M).
T2 construct: expressed in transfected cells; host or cells: BaF3
Conditions: BaF3 cell line stably transfected with EGFR L858R/T790M/C797S, read-out: L858R/T790M/ C797S growth inhibitory activity IC50. An outline of the steps:
as §1

Experiment [3] concerns the target T3, various mutants of kinase EGFR (BaF3 cell lines stably transfected with kinase) (Homo sapiens, UniProt P00533, T790M/C797S, form not given).
T3 construct: other: BaF3 cells stably transfected with EGFR Δ19Del/T790M/C797S; MTS, 48; other: BaF3 cell line stably transfected with EGFR Δ19Del/T790M/C7
Conditions: BaF3 cell line stably transfected with EGFR Δ19Del/T790M/C797S, read-out: Δ19Del/T790M/ C797S growth inhibitory activity IC50. Summed up: as §1

The target of experiment [4] is T4, various mutants of kinase EGFR (BaF3 cell lines stably transfected with kinase) (Homo sapiens, UniProt P00533, L858R).
T4 construct: expressed in transfected cells; host or cells: BaF3
Particulars: BaF3 cell line stably transfected with EGFR L858R, read-out: L858R growth inhibitory activity IC50. An outline of the steps: as §1

For experiment [5], the target named is T5, various mutants of kinase EGFR (BaF3 cell lines stably transfected with kinase) (Homo sapiens, UniProt P00533, L858R/T790M).
T5 construct: expressed in transfected cells; host or cells: BaF3
Conditions: BaF3 cell line stably transfected with EGFR L858R/T790M, read-out: L858R/ T790M growth inhibitory activity IC50. An outline of the steps: as §1

Experiment [6] has as its target T6, various mutants of kinase EGFR (BaF3 cell lines stably transfected with kinase) (Homo sapiens, UniProt P00533, T790M, form not given).
T6 construct: other: BaF3 cells stably transfected with EGFR Δ19Del/T790M; MTS, 48 h; other: BaF3 cell line stably transfected with EGFR Δ19Del/T790M; MTS, 48
Conditions: BaF3 cell line stably transfected with EGFR Δ19Del/T790M, read-out: Δ19Del/ T790M growth inhibitory activity IC50. An outline of the steps:
as §1

T6 sequence (P00533 with tags, fused parts or gaps DEL746-750/T790M, form open): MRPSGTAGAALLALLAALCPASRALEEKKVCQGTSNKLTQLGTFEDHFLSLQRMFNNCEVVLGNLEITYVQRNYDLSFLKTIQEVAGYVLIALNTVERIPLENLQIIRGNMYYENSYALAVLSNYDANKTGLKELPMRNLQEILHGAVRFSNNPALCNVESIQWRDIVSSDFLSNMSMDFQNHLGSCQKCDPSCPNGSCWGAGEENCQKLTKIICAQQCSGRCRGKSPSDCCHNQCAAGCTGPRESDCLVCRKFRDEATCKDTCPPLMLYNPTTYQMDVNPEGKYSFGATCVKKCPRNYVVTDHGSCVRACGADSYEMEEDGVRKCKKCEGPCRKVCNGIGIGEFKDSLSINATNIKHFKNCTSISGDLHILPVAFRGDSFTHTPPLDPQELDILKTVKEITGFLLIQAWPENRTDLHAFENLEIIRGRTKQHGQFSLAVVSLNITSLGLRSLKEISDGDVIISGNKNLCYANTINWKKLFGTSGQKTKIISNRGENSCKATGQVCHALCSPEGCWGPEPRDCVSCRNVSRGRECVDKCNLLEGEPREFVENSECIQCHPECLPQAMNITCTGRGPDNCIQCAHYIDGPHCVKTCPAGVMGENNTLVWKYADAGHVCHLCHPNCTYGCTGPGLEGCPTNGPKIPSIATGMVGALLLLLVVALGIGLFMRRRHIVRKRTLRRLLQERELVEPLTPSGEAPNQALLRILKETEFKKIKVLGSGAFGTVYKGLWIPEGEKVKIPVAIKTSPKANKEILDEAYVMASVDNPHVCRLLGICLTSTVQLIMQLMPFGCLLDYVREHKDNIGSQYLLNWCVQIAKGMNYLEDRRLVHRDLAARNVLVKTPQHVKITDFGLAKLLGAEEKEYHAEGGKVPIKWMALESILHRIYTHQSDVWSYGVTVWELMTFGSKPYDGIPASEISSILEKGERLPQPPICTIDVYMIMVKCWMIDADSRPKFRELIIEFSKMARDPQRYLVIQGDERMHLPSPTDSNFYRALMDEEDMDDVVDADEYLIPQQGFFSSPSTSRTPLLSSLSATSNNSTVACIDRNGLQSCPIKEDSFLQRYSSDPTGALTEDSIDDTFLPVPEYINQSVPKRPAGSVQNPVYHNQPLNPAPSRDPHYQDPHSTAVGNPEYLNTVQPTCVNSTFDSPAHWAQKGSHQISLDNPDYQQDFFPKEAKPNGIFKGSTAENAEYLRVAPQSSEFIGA
T4 sequence (P00533 25-1210 L858R): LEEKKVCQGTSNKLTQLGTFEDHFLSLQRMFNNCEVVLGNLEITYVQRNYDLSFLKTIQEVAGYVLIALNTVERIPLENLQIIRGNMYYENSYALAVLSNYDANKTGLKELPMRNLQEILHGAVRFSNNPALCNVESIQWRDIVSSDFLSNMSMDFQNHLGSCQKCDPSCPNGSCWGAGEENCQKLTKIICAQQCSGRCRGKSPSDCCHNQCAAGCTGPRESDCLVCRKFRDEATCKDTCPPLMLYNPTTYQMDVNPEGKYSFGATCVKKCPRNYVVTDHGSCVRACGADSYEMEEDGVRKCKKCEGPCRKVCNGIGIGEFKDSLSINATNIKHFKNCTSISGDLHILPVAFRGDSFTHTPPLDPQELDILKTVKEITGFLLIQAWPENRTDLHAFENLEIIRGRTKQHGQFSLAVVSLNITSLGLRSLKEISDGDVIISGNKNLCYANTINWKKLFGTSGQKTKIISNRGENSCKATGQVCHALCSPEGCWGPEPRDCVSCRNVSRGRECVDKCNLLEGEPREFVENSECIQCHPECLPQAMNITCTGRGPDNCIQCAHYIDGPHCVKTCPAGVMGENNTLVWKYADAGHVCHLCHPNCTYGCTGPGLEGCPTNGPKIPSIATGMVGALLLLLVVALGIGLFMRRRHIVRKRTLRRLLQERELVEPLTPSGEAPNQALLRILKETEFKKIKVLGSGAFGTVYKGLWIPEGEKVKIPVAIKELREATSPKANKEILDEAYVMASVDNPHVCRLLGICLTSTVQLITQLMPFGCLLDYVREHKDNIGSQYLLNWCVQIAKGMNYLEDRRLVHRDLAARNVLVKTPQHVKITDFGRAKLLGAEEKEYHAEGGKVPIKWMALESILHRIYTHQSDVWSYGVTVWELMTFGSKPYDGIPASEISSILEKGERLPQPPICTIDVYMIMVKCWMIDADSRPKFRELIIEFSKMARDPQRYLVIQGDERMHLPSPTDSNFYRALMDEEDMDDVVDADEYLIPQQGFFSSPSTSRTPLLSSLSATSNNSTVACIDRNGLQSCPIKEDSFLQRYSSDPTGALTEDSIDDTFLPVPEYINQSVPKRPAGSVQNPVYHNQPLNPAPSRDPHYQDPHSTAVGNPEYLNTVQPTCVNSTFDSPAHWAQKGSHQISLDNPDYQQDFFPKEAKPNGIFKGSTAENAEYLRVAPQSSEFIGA
T5 sequence (P00533 25-1210 T790M/L858R): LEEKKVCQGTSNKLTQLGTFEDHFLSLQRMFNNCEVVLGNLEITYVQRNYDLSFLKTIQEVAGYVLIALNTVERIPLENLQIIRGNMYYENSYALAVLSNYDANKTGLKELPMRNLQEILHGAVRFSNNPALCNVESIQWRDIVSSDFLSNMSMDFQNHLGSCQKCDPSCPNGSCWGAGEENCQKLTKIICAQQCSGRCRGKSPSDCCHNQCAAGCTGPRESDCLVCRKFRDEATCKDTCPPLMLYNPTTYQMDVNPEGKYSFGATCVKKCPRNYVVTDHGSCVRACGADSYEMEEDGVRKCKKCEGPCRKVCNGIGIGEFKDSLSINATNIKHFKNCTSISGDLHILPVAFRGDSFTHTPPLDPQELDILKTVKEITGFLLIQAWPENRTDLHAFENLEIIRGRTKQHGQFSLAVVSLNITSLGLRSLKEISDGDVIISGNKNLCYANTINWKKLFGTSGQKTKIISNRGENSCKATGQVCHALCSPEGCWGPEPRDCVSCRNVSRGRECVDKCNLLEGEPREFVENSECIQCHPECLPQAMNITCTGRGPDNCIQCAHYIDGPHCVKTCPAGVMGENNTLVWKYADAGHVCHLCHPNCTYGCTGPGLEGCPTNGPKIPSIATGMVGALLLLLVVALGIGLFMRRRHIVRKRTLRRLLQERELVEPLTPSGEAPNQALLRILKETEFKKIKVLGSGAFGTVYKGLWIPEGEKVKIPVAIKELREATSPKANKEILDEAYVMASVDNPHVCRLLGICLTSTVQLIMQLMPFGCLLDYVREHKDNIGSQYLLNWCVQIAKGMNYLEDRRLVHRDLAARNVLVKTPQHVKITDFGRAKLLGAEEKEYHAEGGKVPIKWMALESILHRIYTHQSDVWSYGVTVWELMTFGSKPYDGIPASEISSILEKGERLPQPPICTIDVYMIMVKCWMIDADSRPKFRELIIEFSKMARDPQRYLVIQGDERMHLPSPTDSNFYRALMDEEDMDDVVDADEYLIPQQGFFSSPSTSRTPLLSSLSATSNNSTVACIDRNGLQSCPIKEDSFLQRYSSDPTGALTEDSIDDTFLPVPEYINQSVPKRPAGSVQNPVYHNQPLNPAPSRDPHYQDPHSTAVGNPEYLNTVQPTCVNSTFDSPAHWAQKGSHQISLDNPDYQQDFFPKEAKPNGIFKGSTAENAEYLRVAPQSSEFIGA
T3 sequence (P00533 with tags, fused parts or gaps DEL746-750/T790M/C797S, form open): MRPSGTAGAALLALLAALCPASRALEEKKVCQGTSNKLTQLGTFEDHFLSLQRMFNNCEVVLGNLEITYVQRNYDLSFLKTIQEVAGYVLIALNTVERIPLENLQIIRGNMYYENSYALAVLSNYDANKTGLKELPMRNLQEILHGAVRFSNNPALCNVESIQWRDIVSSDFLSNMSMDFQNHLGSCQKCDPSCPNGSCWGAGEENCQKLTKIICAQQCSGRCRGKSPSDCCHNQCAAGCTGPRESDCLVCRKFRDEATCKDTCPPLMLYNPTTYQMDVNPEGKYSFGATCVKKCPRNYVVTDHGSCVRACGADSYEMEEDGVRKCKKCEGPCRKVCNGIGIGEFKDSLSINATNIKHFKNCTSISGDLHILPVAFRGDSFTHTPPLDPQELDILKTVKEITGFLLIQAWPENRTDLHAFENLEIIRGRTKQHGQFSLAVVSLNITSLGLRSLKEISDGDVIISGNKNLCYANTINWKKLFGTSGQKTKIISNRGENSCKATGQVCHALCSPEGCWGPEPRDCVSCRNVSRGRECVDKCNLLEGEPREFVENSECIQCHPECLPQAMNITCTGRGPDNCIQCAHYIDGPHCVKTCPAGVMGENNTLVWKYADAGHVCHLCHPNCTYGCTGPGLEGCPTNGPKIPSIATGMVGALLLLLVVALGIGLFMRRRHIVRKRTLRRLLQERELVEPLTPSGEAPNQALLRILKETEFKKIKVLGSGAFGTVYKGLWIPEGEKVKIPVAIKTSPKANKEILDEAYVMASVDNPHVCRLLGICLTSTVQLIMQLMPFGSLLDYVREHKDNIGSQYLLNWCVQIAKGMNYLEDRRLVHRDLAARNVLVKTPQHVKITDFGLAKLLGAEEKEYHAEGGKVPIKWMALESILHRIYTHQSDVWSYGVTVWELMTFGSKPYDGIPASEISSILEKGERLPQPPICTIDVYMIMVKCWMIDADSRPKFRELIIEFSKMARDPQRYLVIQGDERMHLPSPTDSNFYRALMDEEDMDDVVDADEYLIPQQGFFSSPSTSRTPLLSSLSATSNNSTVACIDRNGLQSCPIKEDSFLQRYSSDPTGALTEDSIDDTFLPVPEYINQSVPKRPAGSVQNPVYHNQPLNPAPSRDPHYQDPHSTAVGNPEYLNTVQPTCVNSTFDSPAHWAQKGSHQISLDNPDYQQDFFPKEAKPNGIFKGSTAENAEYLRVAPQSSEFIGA

Consider `CCc1cc(Nc2ncc(C)c(Nc3ccc4nccnc4c3N(C)S(C)(=O)=O)n2)c(OC)cc1N1CCN(C)CC1` [Compound I-315], for which the IC50 in experiment [1], in experiment [2], in experiment [3], in experiment [4], in experiment [5] and in experiment [6] was not above 50 nM each time.

As for `CCc1cnc(Nc2ccc(N3CCC(N4CCN(C)CC4)CC3)cc2OC)nc1Nc1ccc2nccnc2c1N(C)S(C)(=O)=O` [Compound I-316], the IC50 in experiment [1] is 50 to 500 nM; in experiment [2], 50 to 500 nM; in experiment [3], not above 50 nM; in experiment [4] it was 50 to 500 nM; in experiment [5] it was 50 to 500 nM; in experiment [6], 50 to 500 nM.

In the case of `CCc1cnc(Nc2cc(C)c(N3CCC(N4CCN(C)CC4)CC3)cc2OC)nc1Nc1ccc2nccnc2c1N(C)S(C)(=O)=O` [Compound I-317], the IC50 in experiment [1], in experiment [2], in experiment [3], in experiment [4], in experiment [5] and in experiment [6] was not above 50 nM each time.

With `CCc1cc(Nc2ncc(CC)c(Nc3ccc4nccnc4c3N(C)S(C)(=O)=O)n2)c(OC)cc1N1CCC(N2CCN(C)CC2)CC1` [Compound I-318], the IC50 in experiment [1], in experiment [2], in experiment [3], in experiment [4], in experiment [5] and in experiment [6] was not above 50 nM each time.

In the case of `CCc1cc(Nc2ncc(CC)c(Nc3ccc4nccnc4c3N(C)S(C)(=O)=O)n2)ccc1N1CCC(N2CCN(C)CC2)CC1` [Compound I-319], the IC50 in experiment [1], in experiment [2], in experiment [3], in experiment [4], in experiment [5] and in experiment [6] was not above 50 nM each time.

With `CCc1cnc(Nc2cc(CC)c(N3CCC(N4CCN(C)CC4)CC3)nc2OC)nc1Nc1ccc2nccnc2c1N(C)S(C)(=O)=O` [Compound I-320], the IC50 in experiment [1], in experiment [2], in experiment [3], in experiment [4], in experiment [5] and in experiment [6] was not above 50 nM in each case.

For `CCc1cc(Nc2ncc(CC)c(Nc3ccc4nccnc4c3N(C)S(C)(=O)=O)n2)c(OC(F)(F)F)cc1N1CCC(N2CCN(C)CC2)CC1` [Compound I-321], the IC50 is 50 to 500 nM in experiment [1]; 50 to 500 nM in experiment [2]; not above 50 nM in experiment [3]; 50 to 500 nM in experiment [4]; 50 to 500 nM in experiment [5]; not above 50 nM in experiment [6].

Regarding `CCc1cc(Nc2ncc(CC)c(Nc3ccc4nccnc4c3N(C)S(C)(=O)=O)n2)c(OC)cc1N1CCN(C)CC1` [Compound I-322], the IC50 in experiment [1], in experiment [2], in experiment [3], in experiment [4], in experiment [5] and in experiment [6] was not above 50 nM each time.

`CCc1cc(Nc2ncc(CC)c(Nc3ccc4nccnc4c3N(C)S(C)(=O)=O)n2)c(OC)cc1N1CCC(N(C)C)CC1` [Compound I-323]: the IC50 in experiment [1], in experiment [2], in experiment [3], in experiment [4], in experiment [5] and in experiment [6] was not above 50 nM each time.

Regarding `CCc1cc(Nc2ncc(CC)c(Nc3ccc4nccnc4c3N(C)S(C)(=O)=O)n2)c(OC)cc1N1CCC(N(C)C)C1` (stereo not drawn) [Compound I-324], the IC50 in experiment [1], in experiment [2], in experiment [3], in experiment [4], in experiment [5] and in experiment [6] was not above 50 nM each time.

As for `COc1cc(N2CCC(N3CCN(C)CC3)CC2)ccc1Nc1ncc(C(C)C)c(Nc2ccc3nccnc3c2N(C)S(C)(=O)=O)n1` [Compound I-325], the IC50 in experiment [1] is 50 to 500 nM; in experiment [2] it was 50 to 500 nM; in experiment [3], not above 50 nM; in experiment [4], 50 to 500 nM; in experiment [5] it was 50 to 500 nM; in experiment [6] it was 50 to 500 nM.

With `COc1cc(N2CCC(N3CCN(C)CC3)CC2)c(C)cc1Nc1ncc(C(C)C)c(Nc2ccc3nccnc3c2N(C)S(C)(=O)=O)n1` [Compound I-326], the IC50 in experiment [1], in experiment [2], in experiment [3], in experiment [4], in experiment [5] and in experiment [6] was 50 to 500 nM throughout.

As for `CCc1cc(Nc2ncc(C(C)C)c(Nc3ccc4nccnc4c3N(C)S(C)(=O)=O)n2)c(OC)cc1N1CCC(N2CCN(C)CC2)CC1` [Compound I-327], the IC50 was not above 50 nM in experiment [1]; 50 to 500 nM in experiment [2]; 50 to 500 nM in experiment [3]; not above 50 nM in experiment [4]; not above 50 nM in experiment [5]; not above 50 nM in experiment [6].

On to `CCc1cc(Nc2ncc(C(C)C)c(Nc3ccc4nccnc4c3N(C)S(C)(=O)=O)n2)c(OC)nc1N1CCC(N2CCN(C)CC2)CC1` [Compound I-328], for which the IC50 was 50 to 500 nM in experiment [1]; 50 to 500 nM in experiment [2]; 50 to 500 nM in experiment [3]; 50 to 500 nM in experiment [4]; not above 50 nM in experiment [5]; not above 50 nM in experiment [6].

Consider `CCc1cc(Nc2ncc(C(C)C)c(Nc3ccc4nccnc4c3N(C)S(C)(=O)=O)n2)c(OC)cc1N1CCN(C)CC1` [Compound I-329], for which the IC50 is 50 to 500 nM in experiment [1]; 50 to 500 nM in experiment [2]; 50 to 500 nM in experiment [3]; 50 to 500 nM in experiment [4]; not above 50 nM in experiment [5]; not above 50 nM in experiment [6].

As to `CCc1cc(Nc2ncc(C(C)C)c(Nc3ccc4nccnc4c3N(C)S(C)(=O)=O)n2)c(OC)cc1N1CCC(N(C)C)CC1` [Compound I-330], the IC50 in experiment [1], in experiment [2], in experiment [3], in experiment [4], in experiment [5] and in experiment [6] was not above 50 nM in each case.

As to `CCc1cc(Nc2ncc(C(C)C)c(Nc3ccc4nccnc4c3N(C)S(C)(=O)=O)n2)c(OC)cc1N1CCC(N(C)C)C1` (stereo not drawn) [Compound I-331], the IC50 was 50 to 500 nM in experiment [1]; not above 50 nM in experiment [2]; not above 50 nM in experiment [3]; 50 to 500 nM in experiment [4]; 50 to 500 nM in experiment [5]; not above 50 nM in experiment [6].

As to `COc1cc(N2CCC(N3CCN(C)CC3)CC2)c(C)cc1Nc1ncc(OC)c(Nc2ccc3nccnc3c2N(C)S(C)(=O)=O)n1` [Compound I-332], the IC50 in experiment [1], in experiment [2], in experiment [3], in experiment [4], in experiment [5] and in experiment [6] was not above 50 nM throughout.

Consider `CCc1cc(Nc2ncc(OC)c(Nc3ccc4nccnc4c3N(C)S(C)(=O)=O)n2)c(OC)cc1N1CCC(N2CCN(C)CC2)CC1` [Compound I-333], for which the IC50 in experiment [1], in experiment [2], in experiment [3], in experiment [4], in experiment [5] and in experiment [6] was not above 50 nM throughout.

Turning to `CCc1cc(Nc2ncc(OC)c(Nc3ccc4nccnc4c3N(C)S(C)(=O)=O)n2)c(OC)nc1N1CCC(N2CCN(C)CC2)CC1` [Compound I-334], the IC50 in experiment [1], in experiment [2], in experiment [3], in experiment [4], in experiment [5] and in experiment [6] was not above 50 nM throughout.

For the molecule `CCc1cc(Nc2ncc(OC)c(Nc3ccc4nccnc4c3N(C)S(C)(=O)=O)n2)c(OC)cc1N1CCC(N(C)C)C1` (stereo not drawn) [Compound I-335], the IC50 in experiment [1], in experiment [2], in experiment [3], in experiment [4], in experiment [5] and in experiment [6] was not above 50 nM in each case.

On to `CCOc1cnc(Nc2cc(C)c(N3CCC(N4CCN(C)CC4)CC3)cc2OC)nc1Nc1ccc2nccnc2c1N(C)S(C)(=O)=O` [Compound I-336], for which the IC50 in experiment [1] is 50 to 500 nM; in experiment [2], 50 to 500 nM; in experiment [3], 500 to 2500 nM; in experiment [4] it was 50 to 500 nM; in experiment [5], 50 to 500 nM; in experiment [6] it was 50 to 500 nM.

Values taken from US20230310428A1, “EGFR INHIBITOR AND PREPARATION METHOD AND USE THEREOF” (HONGYUN BIOTECH CO., LTD., priority 2020, published 2023).
